The source of these data is US20190083437A1, “S- Methylcysteine Sulfoxide For Prostate Cancer Prevention And Treatment” (QUADRAM INSTITUTE BIOSCIENCE, priority 2016, published 2019).

The subject of series [1] is Human prostate PNT1A cells. As to the kind of experiment: Cell assay of SMCSO uptake/accumulation in cells (HPLC of whole cell lysates). In kind it is cell-based. To be noted: 300 μM SMCSO. The protocol: PNT1A cells were treated with 300μM SMCSO and intracellular levels of SMCSO were quantified following incubation of between 1 h and 72 h. Data shown are means±SD (n=3).
Human prostate PNT1A cells were incubated with 300 μM SMCSO for up to 72 h in triplicate. Whole cell lysates were collected at regular intervals between 0 and 72 h and levels of SMCSO were quantified by HPLC as above. […] Uptake increases up to approximately 30% following 72 h of exposure to SMCSO.

A short description of series [2]: SMCSO bioavailability from single dietary supplementation with Beneforte broccoli and stilton soup (plasma and urine over 24 h). In kind it is in vivo, human. The text has this:
Exposure of prostate tissues to S-methylcysteine sulfoxide may occur either through the systemic circulation in the blood stream, or through urinary reflux. Indeed, urinary reflux into prostatic ducts is common knowledge in the field (Kirby R. S. et al. Intra-prostatic urinary reflux: an aetiological factor in abacterial prostatitis. British Journal of Urology 54, 729-731 (1982)). FIGS. 5 and 6 respectively show the plasma concentration and cumulative excretion of S-methylcysteine sulfoxide in urine following consumption of Beneforté™ broccoli (described, for example, in WO99/052345) and Stilton soup containing 1.2 mmoles of S-methylcysteine sulfoxide.
The change in plasma concentration of S-methylcysteine sulfoxide was recorded over 24 hours in ten patients.
Ten patients took part in this study. The total S-methylcysteine sulfoxide excreted represented 23% of that consumed.
A dietary intervention study was carried out on healthy subjects (n=10) whereby a single event of dietary supplementation was carried out with Beneforte™ broccoli and stilton soup, produced according to the recipe as described in Example 1, providing an effective SMCSO dose of 1.2 mmoles. This was followed by urine and blood collection over 24 h. Plasma and urinary concentrations of SMCSO were measured, see FIGS. 5 (plasma) and 6 (urine). SMCSO concentration in blood plasma increased from a baseline level of 0 μM at the start of the 24 h period to a maximum concentration of 24 μM one hour after consumption of the soup. […] The 24 h cumulative urinary concentration was over 100 μmoles SMCSO.

For series [3] the following is noted: within 24 h, radioactive SMCSO to humans; cited from earlier work.
Another series concerns prostate tissue. Description: Short duration (4-6 weeks) diet intervention study: SMCSO and ADP in prostate biopsy tissue. To be noted: three 300 g portions per week (6.4 mmoles SMCSO each) for at least 4 weeks, n=9 per arm, p=0.005. In kind it is in vivo, human. The text has this:
A two arm parallel un-blinded short-term intervention with an enhanced dose of broccoli soups was undertaken. The study recruited men who had been diagnosed or were under investigation for prostate cancer and required a transperineal template biopsy as part of their standard clinical care.
Patients recruited onto this study were randomly allocated to one of two arms in which they were required to consume three portions of broccoli and stilton soup per week for at least four weeks prior to their biopsy (i) or to follow their normal diet until the operation date (ii). The broccoli and stilton soups contained glucoraphanin-enriched Beneforte® broccoli. The study was not blinded and involved tissue, blood and urine collection on the same day that patients were scheduled for their diagnostic biopsy. Their habitual intake of cruciferous vegetables and dietary supplements was assessed. […]
SMCSO was measured by following the method described by Bernaert and colleagues (Bernaert, N., et al., Influence of cultivar and harvest time on the amounts of isoalliin and methiin in leek (Allium ampeloprasum var. porrum). J Agric Food Chem, 2012. 60(44): p. 10910-9). […] After centrifugation, the supernatant was diluted with 0.1% formic acid in water, and analysed by LC-MS/MS using an Agilent 6490 mass spectrometer with a photodiode array detector. […]

For series [4], the system named is human prostatic PNT1A cell line. As to the kind of experiment: ATP levels in prostate cell assay (fluorimetric kit). In kind it is cell-based. The conditions noted are these: SMCSO 100 μM or 200 μM, 24 hours exposure, vs control cells. The protocol:
The concentration of S-methylsulfoxide used in this study (100 μmol to 200 μmop was similar to that found in urine following consumption of 1.0-1.5 mmoles of S-methylcysteine sulfoxide.
Cells of the human prostatic PNT1A cell line were incubated with SMCSO at 100 μM or 200 μM, these concentrations were chosen as they were consistent with the physiological concentrations of SMCSO measured in the human intervention diet study, for example 2-4 hours after consumption of Beneforté™ broccoli soup the concentration of SMCSO in the urine of study subjects ranged from 42.18 μM to 130.17 μM, see Table 1. ATP levels (nmol/mg protein) in control and SMCSO treated cells were measured fluorimetrically using a commercially available kit (Abcam, ab 8335).

Turning to S-methylcysteine sulfoxide [SMCSO], the “cellular uptake of SMCSO (speed)” value in series [1] was “rapid, as early as 1 h”. Also, the “intracellular SMCSO uptake as % of exposure” value in series [1] (72 h of exposure) is “approximately 30%”. Further, the “intracellular SMCSO level as % of the initial exposure levels” value in series [1] (constant from 1 h for at least 24 h) is on record as 10%. Further, in series [2] (0-2 h after consumption, 1.2 mmoles SMCSO), the “concentration of SMCSO in urine (up to)” value is on record as “up to 164 uM”. In addition, in series [2] (0-2 h after consumption, estimate), the “likely concentration of SMCSO within a single urination” value was above 200 µM. The “blood plasma levels at the end of the 24 h period” value in series [2] (1.2 mmoles SMCSO, 24 h) is listed as “remained elevated above baseline”. The “cumulative urinary SMCSO, mean” value in series [2] (2-4 hours after dietary supplementation, 1.2 mmoles SMCSO) was found to be 71.5 µmol. In series [2] (24 h, 1.2 mmoles SMCSO), the “24 h cumulative urinary SMCSO” value is reported as “over 100 μmoles”. The “S-methylcysteine sulfoxide excreted in urine (concentration, up to)” value in series [2] (first 0-2 hours, soup containing 1.2 mmoles) was “up to 163.9 μM”. Besides, the “time of maximum plasma concentration after consumption of the soup” value in series [2] (healthy subjects n=10, 1.2 mmoles SMCSO) is listed as “one”. Besides, the “maximum SMCSO concentration in blood plasma” value in series [2] (healthy subjects n=10, single soup portion providing 1.2 mmoles SMCSO, oral) was determined as 24 µM. Also, the “total S-methylcysteine sulfoxide excreted in urine as share of that consumed” value in series [2] (ten patients, 1.2 mmoles, cumulative) came to 23%. Further, in series [3], the “SMCSO excreted un-metabolised within urine” value is on record as 6-8%. For the same substance, the “SMCSO accumulation in prostate biopsy tissue, intervention vs non-intervention arm” value in the series with prostate tissue is given as “increased accumulation”. Further, the “cellular concentration of ATP” value in series [4] was “reduced”.
